Results from paper PMC4132908, “Genome-wide annotation and functional identification of aphid GLUT-like sugar transporters” (BMC Genomics, 2014).

Molecular target: T1, ApST4 (A. pisum sugar transporter 4) (Acyrthosiphon pisum, UniProt A0A8R2H6Y5)
T1 sequence (A0A8R2H6Y5 64-552): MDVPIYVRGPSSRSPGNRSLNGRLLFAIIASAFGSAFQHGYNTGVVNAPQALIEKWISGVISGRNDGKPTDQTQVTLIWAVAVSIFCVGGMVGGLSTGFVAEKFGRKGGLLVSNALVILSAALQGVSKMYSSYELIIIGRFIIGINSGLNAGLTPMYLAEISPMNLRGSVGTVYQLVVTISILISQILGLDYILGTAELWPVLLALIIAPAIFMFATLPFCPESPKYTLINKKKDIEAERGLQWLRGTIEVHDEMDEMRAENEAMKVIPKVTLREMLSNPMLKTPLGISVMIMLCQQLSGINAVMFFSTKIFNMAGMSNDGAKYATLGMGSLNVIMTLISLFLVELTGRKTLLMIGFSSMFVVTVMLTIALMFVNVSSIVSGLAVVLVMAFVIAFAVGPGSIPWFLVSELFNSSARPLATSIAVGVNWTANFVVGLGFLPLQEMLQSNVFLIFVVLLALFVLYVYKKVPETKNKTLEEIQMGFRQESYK
Test: competition with […]-fructose uptake in whole yeast cells
Assay type: cell-based
Details: 50 mM 14C-fructose; 100 mM unlabelled competitor; pH 7.0; 30 °C; 10 min

OC[C@H]1OC(O)[C@H](O)[C@@H](O)[C@H]1O (some centres unmarked) [galactose]
% reduction of 14C-fructose uptake at 100 mM: ~ 21%

OC[C@H]1OC(O)[C@@H](O)[C@@H](O)[C@@H]1O (some centres unmarked) [mannose]
% reduction of 14C-fructose uptake at 100 mM: > 50%
